{"source": "paper PMC8708985", "about": "“Regulation of D-Aspartate Oxidase Gene Expression by Pyruvate Metabolism in the Yeast Cryptococcus humicola” (Microorganisms, 2021)", "biological_target": "T1, ChDDO (Vanrija humicola, UniProt Q75WF1)", "T1 construct": "gene DDO; native enzyme in crude extract of D-Asp-induced strain UJ1 cells; FAD added", "T1 sequence (Q75WF1 whole entry)": "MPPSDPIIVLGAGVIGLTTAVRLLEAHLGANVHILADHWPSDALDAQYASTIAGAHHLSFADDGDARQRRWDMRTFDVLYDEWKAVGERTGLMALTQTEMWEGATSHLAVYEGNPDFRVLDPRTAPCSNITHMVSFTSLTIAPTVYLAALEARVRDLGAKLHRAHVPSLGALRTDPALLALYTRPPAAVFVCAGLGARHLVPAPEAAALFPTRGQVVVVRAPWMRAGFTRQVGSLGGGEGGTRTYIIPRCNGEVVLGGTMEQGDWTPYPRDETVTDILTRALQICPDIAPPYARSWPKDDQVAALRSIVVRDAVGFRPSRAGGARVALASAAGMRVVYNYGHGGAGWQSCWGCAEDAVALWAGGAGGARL", "experiment": "HRP-coupled phenol/4-aminoantipyrine H2O2 assay at […] nm, crude extract", "format": "biochemical", "settings": "20 mM D-Asp; 20 uM FAD; 50 mM potassium phosphate pH 8.0", "data": [{"smiles": "N[C@H](CC(=O)O)C(=O)O", "note": "[D-Asp]", "values": [{"measurement": "HRP-coupled phenol/4-aminoantipyrine H2O2 assay at 505 nm, crude extract", "value": "the enzyme activity in the crude extract of the ΔChpyc1 strain induced by D-Asp"}]}]}
